Several values for one entry are separate records, joined by “and”; a condition that tells them apart may be missing. Identical values can stand only once.
What was measured:
[1] = biological target: DRD2 (D2 long receptor) wild-type (Homo sapiens, UniProt P14416); assay: Radioligand competition binding, [3H]-N-methylspiperone, HEK293T membranes; settings: DRD2; [3H]-methylspiperone (0.8-1.0 nM); read-out: Ki
DRD3 wild-type = DRD3 wild-type (Homo sapiens, UniProt P35462); assay: Radioligand competition binding, [3H]-N-methylspiperone; settings: DRD3 wild-type; read-out: pKi ± SEM (converted)
Chain of DRD3 wild-type (P35462 whole entry): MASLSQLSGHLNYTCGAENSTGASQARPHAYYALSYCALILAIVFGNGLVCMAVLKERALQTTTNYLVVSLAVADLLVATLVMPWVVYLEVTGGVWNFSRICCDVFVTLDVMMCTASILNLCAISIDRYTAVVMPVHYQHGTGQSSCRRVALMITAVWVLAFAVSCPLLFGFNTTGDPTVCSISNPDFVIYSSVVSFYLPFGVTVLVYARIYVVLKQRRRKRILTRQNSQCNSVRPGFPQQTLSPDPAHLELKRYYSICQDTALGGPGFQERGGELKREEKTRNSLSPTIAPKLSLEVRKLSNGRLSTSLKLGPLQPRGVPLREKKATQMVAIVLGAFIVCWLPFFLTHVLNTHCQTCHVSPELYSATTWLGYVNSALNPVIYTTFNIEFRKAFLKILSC

[2] = biological target: T1, DRD4 (D4.4 variant) wild-type (Homo sapiens, UniProt P21917); assay: as above; settings: DRD4; [3H]-methylspiperone (0.8-1.0 nM); read-out: Ki
T1 sequence (P21917 1-419): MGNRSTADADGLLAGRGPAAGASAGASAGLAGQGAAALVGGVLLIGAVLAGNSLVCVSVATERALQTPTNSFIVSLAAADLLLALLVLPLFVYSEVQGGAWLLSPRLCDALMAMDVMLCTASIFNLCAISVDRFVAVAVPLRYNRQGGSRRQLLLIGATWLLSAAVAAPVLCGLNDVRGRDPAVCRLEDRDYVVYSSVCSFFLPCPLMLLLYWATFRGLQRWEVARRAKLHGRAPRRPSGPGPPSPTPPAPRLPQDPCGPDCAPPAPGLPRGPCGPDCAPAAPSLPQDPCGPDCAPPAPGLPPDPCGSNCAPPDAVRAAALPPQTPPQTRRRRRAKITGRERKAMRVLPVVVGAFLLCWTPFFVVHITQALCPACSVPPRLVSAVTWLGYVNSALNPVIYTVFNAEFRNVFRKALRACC

DRD2 (D2 long receptor) = DRD2 (D2 long receptor) (Homo sapiens, UniProt P14416); assay: Gαi/o-mediated cAMP inhibition (GloSensor split-luciferase cAMP reporter), HEK293T; type: cell-based; settings: DRD2; antagonist, Gαi/o-mediated cAMP inhibition; read-out: EC50 ± SEM (antagonist);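 note: compounds applied 15 min at room temperature, then luciferin plus 400 nM isoproterenol to raise cAMP through endogenous β2-adrenergic receptors, luminescence read 15 min later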
Chain of DRD2 (D2 long receptor) (P14416 whole entry): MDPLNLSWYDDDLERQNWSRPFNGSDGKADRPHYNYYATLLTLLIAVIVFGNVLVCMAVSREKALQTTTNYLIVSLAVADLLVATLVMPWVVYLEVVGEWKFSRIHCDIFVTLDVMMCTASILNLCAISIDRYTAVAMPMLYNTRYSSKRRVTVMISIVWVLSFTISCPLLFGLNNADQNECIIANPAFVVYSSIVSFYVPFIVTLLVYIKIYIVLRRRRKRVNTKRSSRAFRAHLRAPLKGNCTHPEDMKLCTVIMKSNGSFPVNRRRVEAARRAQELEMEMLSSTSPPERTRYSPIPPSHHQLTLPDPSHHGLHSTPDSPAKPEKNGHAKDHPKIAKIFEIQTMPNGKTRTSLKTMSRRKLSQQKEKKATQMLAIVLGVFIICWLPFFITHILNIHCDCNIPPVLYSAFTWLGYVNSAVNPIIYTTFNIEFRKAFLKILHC

5HT6 = biological target: T2, 5HT6 (Homo sapiens, UniProt P50406); assay: β-arrestin2 recruitment (Tango); type: cell-based; settings: Fig_S10p, agonist mode
T2 construct: expressed in transfected cells; host or cells: HTLA cells expressing TEV-fused β-arrestin2
T2 sequence (P50406 whole entry, the tested form may be a part): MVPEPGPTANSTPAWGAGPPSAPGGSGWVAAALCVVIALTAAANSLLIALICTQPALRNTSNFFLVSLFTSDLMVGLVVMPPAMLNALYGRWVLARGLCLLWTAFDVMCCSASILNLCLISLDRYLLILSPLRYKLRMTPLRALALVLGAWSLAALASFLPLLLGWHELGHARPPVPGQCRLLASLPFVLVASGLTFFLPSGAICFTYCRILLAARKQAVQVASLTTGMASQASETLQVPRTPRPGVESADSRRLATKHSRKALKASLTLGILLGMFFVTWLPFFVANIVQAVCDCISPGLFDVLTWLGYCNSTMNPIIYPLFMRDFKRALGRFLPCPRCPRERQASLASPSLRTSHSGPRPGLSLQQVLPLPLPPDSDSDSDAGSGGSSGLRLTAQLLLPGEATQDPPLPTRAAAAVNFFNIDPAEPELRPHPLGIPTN

5HT7A = biological target: T3, 5HT7A (Homo sapiens, UniProt P34969); assay: β-arrestin2 recruitment (Tango); type: cell-based; settings: Fig_S10q, agonist mode
T3 construct: expressed in transfected cells; host or cells: HTLA cells expressing TEV-fused β-arrestin2
T3 sequence (P34969 1-445 isoform P34969-2): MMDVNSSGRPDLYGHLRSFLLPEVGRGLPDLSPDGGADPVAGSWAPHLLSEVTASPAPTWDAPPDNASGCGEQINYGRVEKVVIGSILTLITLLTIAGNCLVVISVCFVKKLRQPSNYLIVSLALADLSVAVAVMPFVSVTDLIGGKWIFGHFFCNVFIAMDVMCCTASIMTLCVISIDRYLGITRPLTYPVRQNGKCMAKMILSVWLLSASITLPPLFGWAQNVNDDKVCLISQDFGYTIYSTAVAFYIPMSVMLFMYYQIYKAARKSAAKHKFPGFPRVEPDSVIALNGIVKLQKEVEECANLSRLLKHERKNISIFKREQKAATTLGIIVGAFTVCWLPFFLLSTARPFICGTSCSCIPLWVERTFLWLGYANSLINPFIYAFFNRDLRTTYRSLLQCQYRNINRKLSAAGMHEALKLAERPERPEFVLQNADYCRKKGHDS

Chain of DRD2 (D2 long receptor) wild-type (P14416 whole entry): as the sequence (P14416 whole entry) above

With `CCCCN(C)C(C)C(=O)Nc1cc([N+](=O)[O-])ccc1OC` (stereo not drawn) [O9LE9] the Ki [1] was 3.8 µM, the Ki (DRD3 wild-type) was 0.214 µM and the Ki [2] was > 10 µM. For the same molecule, the EC50 (DRD2 (D2 long receptor)) was 3.55 ± 0.295 µM.

For `CC[C@@H](CO)NC(=O)[C@@H]1C=C2c3cccc4[nH]cc(c34)C[C@H]2N(C)C1` [methylergonovine], the “β-arrestin2 recruitment response, replicate points of concentration-response curve” value (from here on “β-arrestin2 recruitment response”) (5HT6; Log[Drug] -7.52) was 58.3654 and 42.8218 and 40.7735 and 42.4938 and 47.6018 and 32.15, the “β-arrestin2 recruitment response” value (5HT6; Log[Drug] -8) was 38.2178 and 17.1349 and 29.2946 and 27.8088 and 40.0294 and 64.9029 and 31.7107 and 61.5077 and 39.0249 and 30.4136 and the “β-arrestin2 recruitment response” value (5HT6; Log[Drug] -8.52) was 30.1013 and 10.6993 and 18.1498 and 24.4245 and 28.031 and 15.5168 and 0.8374 and 22.4349 and 11.5027 and 21.7874 and 10.2907 and 27.3285. The “β-arrestin2 recruitment response” value (5HT6; Log[Drug] -9) was 20.3729 and 3.9604 and 2.141 and 7.952 and 0.7859 and 8.081 and -4.077 and -4.555 and -0.4693 and 35.6884 and 0.3477 and 9.366, the “β-arrestin2 recruitment response” value (5HT6; Log[Drug] -9.52) was 14.1022 and -2.488 and 4.171 and 24.8948 and 4.829 and 2.461 and 0.773 and -7.38 and -5.613 and 10.7938 and 2.907 and -1.524 and the “β-arrestin2 recruitment response” value (5HT6; Log[Drug] -10) was 15.029 and -5.149 and -2.667 and -0.08663 and 7.1866 and 6.531 and -8.448 and -13.3063 and 14.3186 and 3.129 and -2.7225 and -5.682. The “β-arrestin2 recruitment response” value (5HT6; Log[Drug] -10.52) was 3.317 and 8.465 and -0.4579 and 0.09901 and 5.631 and 26.1232 and -3.267 and -10.7113 and 5.834 and 27.1732 and 9.063 and 0.5697, the “β-arrestin2 recruitment response” value (5HT6; Log[Drug] -11) was 5.777 and -4.208 and -3.1745 and 6.856 and 4.8832 and -1.2628 and -4.113 and -7.095 and -5.0704 and 3.773 and -2.7003 and -4.128 and the “β-arrestin2 recruitment response” value (5HT6; Log[Drug] -11.52) was -0.7317 and 4.554 and -0.9344 and -1.6151 and 0.5528 and 0.3631 and 17.5761 and 19.5362 and 55.6731 and -3.662 and -4.713 and -3.3. The “β-arrestin2 recruitment response” value (5HT7A; Log[Drug] -8.52) was 57.2072 and 62.1985 and 0.2034 and 43.345 and 17.0227 and 39.6469 and 24.6535 and -5.393 and 3.158, the “β-arrestin2 recruitment response” value (5HT7A; Log[Drug] -9) was 28.3493 and 32.0982 and 22.9584 and 37.3511 and 39.7632 and 14.7559 and 9.616 and 19.0912 and 1.923 and the “β-arrestin2 recruitment response” value (5HT7A; Log[Drug] -9.52) was -6.008 and 0.109 and 1.017 and 1.4676 and 14.0366 and 7.578 and 5.289 and -11.615 and 5.562. For the same molecule, the “β-arrestin2 recruitment response” value (5HT7A; Log[Drug] -10) was -3.669 and 16.1145 and 7.694 and 15.3008 and -0.2833 and 45.4083 and 32.224 and 8.8715 and 2.743, the “β-arrestin2 recruitment response” value (5HT7A; Log[Drug] -10.52) was 10.5565 and 33.0718 and 2.739 and 13.5571 and -3.967 and -24.3897 and -1.32 and -17.1773 and 11.1342 and the “β-arrestin2 recruitment response” value (5HT7A; Log[Drug] -11) was -4.984 and -18.2941 and -15.3444 and 8.733 and -19.8489 and 29.4754 and -10.9833 and -5.732 and 20.4393. For the same molecule, the “β-arrestin2 recruitment response” value (5HT7A; Log[Drug] -11.52) was -6.553 and -20.7643 and -12.3583 and 13.7605 and -14.4653 and -10.5493 and -19.7417 and -12.1995 and -5.987 and the “β-arrestin2 recruitment response” value (5HT7A; Log[Drug] -12) was 42.2988 and -7.374 and -17.7056 and -12.5618 and -4.708 and 17.4441 and -2.395 and 25.3135 and 14.3302.
